Results taken from patent publication US10209240B2, “Predicting human developmental toxicity of pharmaceuticals using human stem-like cells and metabolomic ratios” (STEMINA BIOMARKER DISCOVERY, INC., priority 2012, dated 2019).
Like-named read-outs stand apart in the source and are kept apart here.

Assays:
WA09 hES cells [1] = experiment: Phase 2 targeted biomarker assay, ornithine/cystine ratio, 9-point dose response; conditions: for Teratogenicity Potential (μM) O/C Ratio: human, 72 h
Source text: Undifferentiated hES Cell Line Maintenance (Phases 1 and 2). WA09 hES cells were obtained from the WiCell Research Institute (Madison, Wis.) and were maintained in feeder free conditions using mTeSR1 media (StemCell Technologies, Inc., Vancouver, BC, Canada) on hESC-qualified Matrigel (BD Biosciences, San Jose, Calif.) coated 6-well plates. To maintain the undifferentiated stem cell population, differentiated colonies were removed daily through aspiration and media was replaced. Additionally, the hES cells were only used in experiments up to passage 40 and were karyotyped approximately every 10 passages to minimize and monitor the potential for genetic instability. hES cells were passaged at 90-95% confluency (approximately every 7 days) using Versene (Life Technologies, Grand Island, N.Y.). Cell cultures were maintained at 37° C. under 5% CO2.
96-well hES Cell Plating (Phases 1 and 2). All experimental treatments were carried out in 96-well plates. To minimize plating variability and increase reproducibility, hES cells were plated as a single cell suspension and maintained in an undifferentiated state during compound exposure. Prior to plating in the 96-well plates, hES cells were removed from a 6-well plate using TrypLE (Life Technologies). The cells were washed with DMEM/F12 (Life Technologies) and resuspended in mTeSR1 containing 10 μM Y27632 Rho-associated kinase (ROCK) inhibitor (Merck KGaA/Calbiochem, Darmstadt, Germany). The ROCK inhibitor is added to the plating media to increase plating efficiency by decreasing dissociation-induced apoptosis. The inner 60 wells of hESC-qualified Matrigel coated 96-well plates were seeded at a density of 100,000 cells per well. The outer wells of the plate contained an equal volume media to minimize differences in humidity across the plate. Compound exposure began 24 hours after plating.
(§1) Phase 2 hES Cell Compound Exposure. […] The standard compound exposure levels used for most compounds were nine, 3-fold dilutions ranging from 0.04 μM-300 μM (FIG. 1B). […] The stock solution was diluted 1:1000 in mTeSR1 media and subsequent dilutions were performed in mTeSR1 containing 0.1% DMSO such that the final concentration of DMSO was 0.1% in all treatments. hES cells were treated for 72 hours and spent media from the last 24-hour treatment period was collected and added to acetonitrile containing ^13C6 labeled arginine (Cambridge Isotope Laboratories, Andover, Md.) as described under Phase 1. Spent media samples were stored at −80° C. until prepared for LC-HRMS analysis. Cell viability was assessed using the CellTiter-Fluor Cell Viability Assay. A quality control step was included with criteria that the CV of the measured viability RFU of the DMSO control cells could not exceed 10% for a plate to undergo LC-HRMS analysis. A dose response curve was fit to the reference treatment (0.1% DMSO treated control cells) normalized data (Viability RFUTrt X/Viability RFUDMSO) using a four-parameter log-logistic model with the R package “drc” (Ritz and Streibig, 2005, J Statistical Software; 12:1-22).
Sample Preparation (Phases 1 and 2). High molecular weight constituents (>10 KDa) of the spent media samples were removed using a Millipore Multiscreen Ultracel-10 filter plate (EMD Millipore, Billerica, Mass.). Prior to sample filtration, the filter plate was washed with 0.1% NaOH to remove a known contaminant polymer. The plate was then rinsed twice with HPLC-grade water to remove residual polymers and NaOH. Spent media samples were added to the washed filter plate. In Phase 1, samples were spiked with ^13C6 labeled arginine. Samples were centrifuged at 2,000×g at 4° C. for 200 minutes. The filtrate was collected and concentrated overnight in a Savant High Capacity Speedvac Plus Concentrator.

WA09 hES cells [2] = system: WA09 hES cells
Experimental: Phase I hES Cell Compound Exposure. hES cells were treated with a test compound at a single concentration equivalent to the compound's published therapeutic Cmax. […] This was done to ensure that enough cells were present at the time of sample collection to provide a signal for LC-HRMS analysis. For test compound exposure, all compound stock solutions, with the exception of valproic acid, were made with DMSO (Sigma-Aldrich). […] Each 96-well plate included media controls with and without test compound, 0.1% DMSO solvent control cells and cells exposed to a single concentration of eight different test compounds (FIG. 1A). Media controls were included on each plate to assess the impact of test compound on the sample matrix. hES cells were exposed to the test compound for 72 hours, with media and test compound replacement every 24 hours. Cells were monitored throughout the treatment period to ensure that no differentiation was occurring. After 72 hours of treatment, the spent media from the final 24-hour treatment period was collected and added to acetonitrile (Sigma-Aldrich, final acetonitrile concentration 40%), to halt metabolic processes and precipitate proteins from solution. Individual wells from each 96-well plate were collected and analyzed as separate samples. These samples were then stored at −80° C. until prepared for LC-HRMS analysis. Cell viability was assessed using the CellTiter-Fluor Cell Viability Assay as per the manufacturer's instructions (Promega, Madison, Wis.). Quality control parameters were set such that if the coefficient of variation (CV) for the viability relative fluorescent units (RFU) of the 6 cellular samples in a treatment exceeded 10% and no outliers were identified using the Grubb's test (see the worldwide web at graphpad.com/quickcalcs/Grubbs1.cfm), analysis was halted for that compound and the cell culture experiment was repeated. If outliers were present, the outlier sample was removed from analysis. If the CV for the DMSO control cell samples on a plate were outside of the quality control parameters, the entire plate was repeated. hES cell exposure to each of the 23 compounds was replicated a total of nine times.
as §1
Phase 2 Prediction of Developmental Toxicity Potential. […] FIG. 2 illustrates how the assay is applied in this situation. A test compound is considered to be teratogenic at the exposure level where the o/c ratio exceeds the teratogenicity threshold (red box, FIG. 2).

[3] = cited from earlier work
Rodent = conditions: cited from earlier work; for Rodent developmental toxicity testing, result in words: relation to maternal toxicity where stated; for Rodent in vivo test results: Teratogenic: structural malformations in the absence of maternal toxicity; for Rodent in vivo test results: Embryotoxic: embryotoxic effect in the absence of teratogenic effects and maternal toxicity
Rabbit = conditions: cited from earlier work
[4] = summarized from TERIS and Briggs et al. 2011, cited from earlier work; for Preclinical in vivo developmental effects: application set compounds; for Preclinical in vivo and known human developmental effects: test set compounds
Humans = conditions: cited from earlier work
[5] = application set, peak plasma concentration in humans
[6] = test set, therapeutic peak plasma in vivo concentration, human

SMILES | Targeted Biomarker Assay prediction (WA09 hES cells [1]) | Cmax [3, 5] [µM] | Teratogenicity Potential (μM) O/C Ratio (WA09 hES cells [1]) [µM] | Teratogenicity Potential (μM) Cell Viability (WA09 hES cells [2]; human, 72 h) [µM] | Rodent prediction (Rodent; application set) | Rabbit prediction (Rabbit; application set) | Preclinical in vivo developmental effects [4] | other results
CC(C)(C)C(=O)OCOP(=O)(COCCn1cnc2c(N)ncnc21)OCOC(=O)C(C)(C)C [Adefovir dipivoxil] | TER | 0.03 | – | – | – | – | – | Teratogenicity Potential (μM) Cell Viability (WA09 hES cells [2]; application set, interpolated concentration where cell viability dose response curve crosses teratogenicity threshold 0.88, 72 hours): 0.02 µM; Rodent developmental toxicity testing, result in words (Rodent): only embryotoxic at exposure levels that also caused maternal toxicity
CCN(CC)C(=O)/C(C#N)=C/c1cc(O)c(O)c([N+](=O)[O-])c1 [Entacapone] | TER | 3.9 | 6.7 | 127 | TER | NON | Eye defects | Rodent in vivo test results: Teratogenic (Rodent; application set): +
CCC(=O)NCC[C@@H]1CCc2ccc3c(c21)CCO3 [Ramelteon] | NON | 0.02 | 34 | >300 | NON | NON | None | Rodent developmental toxicity testing, result in words (Rodent): only embryotoxic at exposure levels that also caused maternal toxicity
Cn1c(=O)c2c(ncn2C)n(C)c1=O [Caffeine] | – | – | – | >300 | – | – | – | Cmax ([3]; training set, therapeutic peak plasma in vivo concentration, human): 9.3 µM; Humans (known human developmental toxicity) (Humans; in vivo): NON
Nc1ccn(C[C@@H](CO)OCP(=O)(O)O)c(=O)n1 [Cidofovir] | TER | 41.2 | 0.3 | 1.9 | NON | NON | None | Rodent developmental toxicity testing, result in words (Rodent): only embryotoxic at exposure levels that also caused maternal toxicity
Nc1nc2c(ncn2COCCO)c(=O)[nH]1 [Acycloguanosine] | NON | – | – | >300 | – | – | – | Viability Prediction (WA09 hES cells [2]; test set, teratogenicity potential scored against therapeutic Cmax): NON; Cmax [3, 6]: 3 µM; Humans (known human developmental toxicity) (Humans; training and test set): NON
CC(C)CN(C[C@@H](O)[C@H](Cc1ccccc1)NC(=O)O[C@H]1CCOC1)S(=O)(=O)c1ccc(N)cc1 [Amprenavir] | NON | 15.1 | 236.9 | 259.5 | TER | TER | Skeletal, embryo toxicity^c | Rodent in vivo test results: Embryotoxic (Rodent; application set): +; Rodent in vivo test results: Teratogenic (Rodent; application set): +
C[C@H]1[C@H](OC(=O)CCC(=O)O)O[C@@H]2O[C@@]3(C)CC[C@H]4[C@H](C)CC[C@@H]1[C@@]24OO3 [Artesunate] | TER | 73.9 | – | 0.58 | – | – | – | –
COc1ccccc1Oc1c(NS(=O)(=O)c2ccc(C(C)(C)C)cc2)nc(-c2ncccn2)nc1OCCO [Bosentan] | NON | – | 44.9 | 221.9 | – | – | – | O/C Ratio Prediction (WA09 hES cells [1]): NON; Viability Prediction (WA09 hES cells [2]): NON; Cmax [3, 6]: 2 µM; Humans (known human developmental toxicity) (Humans; training and test set): TER; Rodent prediction (Rodent; training and test set): TER; Rabbit prediction (Rabbit; training and test set): NON; Preclinical in vivo and known human developmental effects [4]: Craniofacial,
CO[C@H]1C[C@@H]2CC[C@@H](C)[C@@](O)(O2)C(=O)C(=O)N2CCCC[C@H]2C(=O)O[C@H]([C@H](C)C[C@@H]2CC[C@@H](OCCO)[C@H](OC)C2)CC(=O)[C@H](C)/C=C(\C)[C@@H](O)[C@@H](OC)C(=O)[C@H](C)C[C@H](C)/C=C/C=C/C=C/1C [Everolimus] | TER | – | <0.04 | 5.2 | – | – | – | Classification by o/c ratio in the targeted biomarker assay (WA09 hES cells [1]): classified as a teratogen; O/C Ratio Prediction (WA09 hES cells [1]): TER; Viability Prediction (WA09 hES cells [2]): NON; Cmax [3, 6]: 0.02 µM; Humans (known human developmental toxicity) (Humans; training and test set): TER; Rodent prediction (Rodent; training and test set): TER; Rabbit prediction (Rabbit; training and test set): NON; Preclinical in vivo and known human developmental effects [4]: Skeletal, embryo toxicity^c
Nc1nc(NC2CC2)c2ncn([C@H]3C=C[C@@H](CO)C3)c2n1 [Abacavir] | NON | 14.9 | 95.1 | 94.1 | TER | NON | Skeletal, embryo toxicity^c | Rodent in vivo test results: Embryotoxic (Rodent; application set): +; Rodent in vivo test results: Teratogenic (Rodent; application set): +
